Test results published in patent US20250186396A1, “COMPOSITIONS AND METHODS FOR THE TREATMENT OF GLIOBLASTOMA WITH A DUAL TARGETING ANTI-TUMOR COMPOSITION” (Northwestern University, priority 2023, published 2025).

Experiments:
CT2A cells = experiment: Survival of mice intracranially implanted with CT2A cells; format: in vivo, C57BL/6 mice; details: CT2A 2×10^4 cells/mouse; BAPN 2 g/L drinking water from day 4; SR9009 100 mg/kg i.p. 10 days from day 7; anti-PD1 10 mg/kg i.p. days 11, 14, 17; radiation 2.5 Gy 4 days from day 7
Procedure: Mice and Intracranial Xenograft Tumor Models. Female C57BL/6 mice at 3 to 4 weeks of age were purchased from the Jackson Laboratory (#0000664). All animals were grouped by 5 mice per cage and maintained in IVC System (San Diego, CA) for a week before the experiment. All animal experiments were performed with the approval of the Institutional Animal Care and Use Committee (IACUC) at Northwestern University. The intracranial xenograft tumor models were established previously. In brief, mice were anesthetized by isoflurane through IMPAC6 Anesthesia System. Then a dental drill was used to open a small hole in the skull of mice 1.2 mm anterior and 3.0 mm lateral to the bregma. Mice were placed into the stereotactic apparatus, and 5 μL 005 GSC, CT2A, or GL261 cells in FBS-free culture medium were injected into the right caudate nucleus 3 mm below the surface of the brain using a 10 μL Hamilton syringe with an unbeveled 30-gauge needle. The incision was closed using Vetbond glue. Meloxicam (20 mg/kg, daily) was subcutaneously injected for pain relief for 3 days after surgery. […]
Statistical analysis. […] The survival analysis for animal models was determined by conducting Log-rank (Mantel-Cox) test. […]

THP-1 macrophages = experiment: Transwell migration assay of THP-1 macrophages with U87 conditioned media; format: cell-based; details: conditioned media from U87 cells pretreated with SR9009 5 μM
Procedure: Migration assay. To study the relationship between macrophages and microglia, HMC3 microglia or THP-1 macrophages were seeded into the 24-well plates (receiver wells) using serum-containing culture medium for 24 hours to reach 40-60% confluence and then stimulated with or without U87 cell CM for additional 24 hours. After that, cells were washed with PBS twice and cultured in serum-free culture medium. For upper chambers, THP-1 macrophages (2×10^5) and HMC3 microglia (5×10^4) were suspended in serum-free culture medium and seeded into […] (Corning, #3421) and […] (Corning, #3422) 24-well Transwell inserts, respectively. To study the role of GBM cells on microglia migration, HMC3 microglia (5×10^4) were suspended in serum-free culture medium and seeded into 8.0 μm inserts. SIM-A9 microglia (1×10^5) and THP-1 macrophages (1×10^5) were suspended in serum-free culture medium and seeded into 5.0 μm inserts. The CM from LOX-depleted or inhibited U87 cells, LOX-overexpressed GL261 cells, or SR9009-treated U87 cells were added to the receiver wells, respectively. After 10 hours, migrated cells were fixed with 4% PFA (ThermoFisher, #J61899.AK) for 30 minutes and stained with crystal violet (Sigma-Aldrich, #C-3886) for another 30 minutes. The membrane inserts were washed with water and imaged under an EVOS microscope. The number of transferred cells was counted using ImageJ.

N#CCCN [BAPN, β-aminopropionitrile]
survival (CT2A cells): extended the survival

CCOC(=O)N1CCC(CN(Cc2ccc(Cl)cc2)Cc2ccc([N+](=O)[O-])s2)C1 (centres unmarked) [SR9009]
migration ability of THP-1 macrophages (THP-1 macrophages): did not change
